Activity calls are given as the source filed them. No cut-off for these calls is given here.
Assays:
[1] = system: HT-29; test: Inhibition of TNF-alpha-induced adhesion of BCECF-labeled human U937 cells to human HT-29 cells at 10 uM preincubated for 1 hr followed by TNF-alpha challenge measured after 3 hrs by fluorescence microscopic method relative to control; assay type: functional
[2] = system: HT-29; test: Inhibition of LPS-induced TNF-alpha expression in human HT-29 cells at 10 uM preincubated for 1 hr followed by TNF-alpha challenge measured after 3 hrs by Western blot method; assay type: functional, cell-based
[3] = system: Rattus norvegicus; test: Antiinflammatory activity in po dosed TNBS-induced Sprague-Dawley rat colitis model assessed as recovery of colon tissue edematous inflammation administered once a day for 5 days measured on day 6; assay type: functional, organism-based
[4] = system: HT-29; test: Inhibition of TNF-alpha-induced AP-1 transcriptional activity in human HT-29 cells at 10 uM preincubated for 1 hr followed by TNF-alpha challenge measured after 3 hrs by dual luciferase reporter gene assay; assay type: functional, cell-based
[5] = system: HT-29; test: Potency index, ratio of 5-ASA IC50 to test compound IC50 for inhibition of TNF-alpha-induced adhesion of BCECF-labeled human U937 cells to human HT-29 cells; assay type: functional
[6] = system: Rattus norvegicus; test: Antiinflammatory activity in po dosed TNBS-induced Sprague-Dawley rat colitis model assessed as recovery in body weight decrease administered once a day for 5 days measured on day 6; assay type: functional, organism-based
[7] = system: HT-29; test: Inhibition of TNF-alpha-induced ROS production in human HT-29 cells preincubated for 1 hr followed by TNF-alpha challenge measured after 30 mins by DCF-DA dye-based fluorescence microscopy; assay type: functional, cell-based
[8] = system: HT-29; test: Inhibition of LPS-induced TNF-alpha expression in human HT-29 cells preincubated for 1 hr followed by TNF-alpha challenge measured after 3 hrs by Western blot method; assay type: functional, cell-based
[9] = system: HT-29; test: Inhibition of TNF-alpha-induced NFkappa-B transcriptional activity in human HT-29 cells at 10 uM preincubated for 1 hr followed by TNF-alpha challenge measured after 3 hrs by dual luciferase reporter gene assay; assay type: functional, cell-based
[10] = system: HT-29; test: Inhibition of TNF-alpha-induced ICAM-1 expression in human HT-29 cells preincubated for 1 hr followed by TNF-alpha challenge measured after 3 hrs by Western blot analysis; assay type: functional, cell-based
[11] = system: Rattus norvegicus; test: Antiinflammatory activity in po dosed TNBS-induced Sprague-Dawley rat colitis model assessed as decrease in MPO levels in colon tissue administered once per day for 5 days measured on day 6; assay type: functional, organism-based
[12] = system: HT-29; test: Inhibition of TNF-alpha-induced MCP-1 expression in human HT-29 cells preincubated for 1 hr followed by TNF-alpha challenge measured after 3 hrs by Western blot analysis; assay type: functional, cell-based
[13] = system: HT-29; test: Inhibition of TNF-alpha-induced adhesion of BCECF-labeled human U937 cells to human HT-29 cells preincubated for 1 hr followed by TNF-alpha challenge measured after 3 hrs by fluorescence microscopic method; assay type: functional, cell-based
[14] = system: HT-29; test: Inhibition of TNF-alpha-induced ROS production in human HT-29 cells at 10 uM preincubated for 1 hr followed by TNF-alpha challenge measured after 30 mins by DCF-DA dye-based fluorescence microscopy; assay type: functional, cell-based
[15] = system: HT-29; test: Inhibition of TNF-alpha-induced ICAM-1 expression in human HT-29 cells at 10 uM preincubated for 1 hr followed by TNF-alpha challenge measured after 3 hrs by Western blot analysis; assay type: functional, cell-based
[16] = system: HT-29; test: Inhibition of TNF-alpha-induced MCP-1 expression in human HT-29 cells at 10 uM preincubated for 1 hr followed by TNF-alpha challenge measured after 3 hrs by Western blot analysis; assay type: functional, cell-based

SMILES: O=C1/C(=C/c2cccc(OC(F)(F)F)c2)Cc2ccccc21
- inhibition at 10 µM [1]: 9.9%

SMILES: O=C1/C(=C/c2ccc(Cl)cc2)Oc2ccccc21
- inhibition at 10 µM [1]: 68.7%

SMILES: COc1ccc(/C=C2\Cc3c(O)cccc3C2=O)cc1O
- inhibition at 10 µM [1]: 0.1%

SMILES: O=C1/C(=C/c2ccccc2O)Cc2cc(O)ccc21
- inhibition at 10 µM [1]: 32.1%

SMILES: O=C1/C(=C/c2ccccc2O)Oc2cc(O)ccc21
- inhibition at 10 µM [1]: 53.5%

SMILES: O=C1/C(=C/c2ccc(F)cc2)Cc2ccccc21
- inhibition at 10 µM [1]: 7.1%

SMILES: O=C1/C(=C/c2cccc(Cl)c2)Oc2cc(O)ccc21
- inhibition at 10 µM [1]: 45.9%

SMILES: O=C1/C(=C/c2ccc(Cl)o2)Cc2ccccc21
- inhibition at 10 µM [1]: -8.9%

SMILES: O=C1/C(=C/c2ccc(Cl)s2)Cc2ccccc21
- inhibition at 10 µM [1]: 5.7%

SMILES: O=C1/C(=C/c2ccc(O)cc2)Cc2cc(O)ccc21
- inhibition at 10 µM [1]: 45.4%

SMILES: O=C1/C(=C/c2cccc([N+](=O)[O-])c2)Cc2ccccc21
- inhibition at 10 µM [1]: 46.5%

SMILES: O=C1/C(=C/c2ccc(O)cc2)Oc2cc(O)ccc21
- inhibition [2]: Active
- Activity [3]: Dose-dependent effect
- inhibition [4]: Active
- Ratio IC50 [5]: 40000
- Activity [6]: Dose-dependent effect
- inhibition at 10 µM [1]: 80.3%
- inhibition [7]: Active
- inhibition [8]: Dose-dependent effect
- inhibition [9]: Active
- inhibition [10]: Dose-dependent effect
- inhibition [11]: Dose-dependent effect
- inhibition [12]: Dose-dependent effect
- IC50 [13]: 500 nM
- inhibition [13]: Dose-dependent effect

SMILES: O=C1/C(=C/c2ccccc2OC(F)(F)F)Cc2ccccc21
- inhibition at 10 µM [1]: 3.4%

SMILES: O=C1/C(=C/c2ccc(O)cc2)Cc2ccc(O)cc21
- inhibition [2]: Active
- inhibition [4]: Active
- inhibition [14]: Active
- inhibition [15]: Active
- inhibition [16]: Active
- inhibition at 10 µM [1]: 80.3%
- inhibition [9]: Active
- IC50 [13]: 830 nM

SMILES: O=C1/C(=C/c2ccccc2Cl)Oc2cc(O)ccc21
- inhibition at 10 µM [1]: 45.5%

SMILES: O=C1/C(=C/c2ccccc2O)Oc2ccccc21
- inhibition [14]: Active
- inhibition [15]: Active
- inhibition [16]: Active
- inhibition at 10 µM [1]: 85.6%
- inhibition [9]: Active
- IC50 [13]: 950 nM

SMILES: O=C1/C(=C/c2ccc(-c3ccccc3)cc2)Cc2ccccc21
- inhibition at 10 µM [1]: 62.6%

SMILES: O=C1/C(=C/c2cccc(C(F)(F)F)c2)Cc2ccccc21
- inhibition at 10 µM [1]: 54.9%

SMILES: O=C1/C(=C/c2ccccc2Cl)Cc2ccccc21
- inhibition at 10 µM [1]: -4.3%

SMILES: O=C1/C(=C/c2ccc(OC(F)(F)F)cc2)Cc2ccccc21
- inhibition at 10 µM [1]: 34.5%

SMILES: O=C1/C(=C/c2ccc(O)cc2)Cc2ccccc21
- inhibition [14]: Active
- inhibition [15]: Active
- inhibition [16]: Active
- inhibition at 10 µM [1]: 72.6%
- inhibition [9]: Active
- IC50 [13]: 1530 nM

SMILES: O=C1/C(=C/c2cccc(O)c2)Cc2cc(O)ccc21
- inhibition at 10 µM [1]: 50.2%

SMILES: O=C1/C(=C/c2ccccc2O)Cc2c(O)cccc21
- inhibition at 10 µM [1]: 30.3%

SMILES: O=C1/C(=C/c2ccc(Cl)cc2)Cc2ccc(O)cc21
- inhibition at 10 µM [1]: 67.9%

SMILES: O=C1/C(=C/c2cccc(O)c2)Cc2cccc(O)c21
- inhibition at 10 µM [1]: 60.5%

SMILES: O=C1/C(=C/c2ccc(Cl)cc2)Cc2ccccc21
- inhibition at 10 µM [1]: -6.1%

SMILES: O=C1/C(=C/c2ccc(Cl)s2)Oc2ccccc21
- inhibition [14]: Active
- inhibition [15]: Active
- inhibition [16]: Active
- inhibition at 10 µM [1]: 75.1%
- inhibition [9]: Active
- IC50 [13]: 3720 nM

SMILES: O=C1/C(=C/c2ccccc2F)Cc2ccccc21
- inhibition at 10 µM [1]: 27.8%

SMILES: O=C1/C(=C/c2ccc(Cl)cc2)Cc2cccc(O)c21
- inhibition [14]: Active
- inhibition [15]: Active
- inhibition [16]: Active
- inhibition at 10 µM [1]: 78.4%
- inhibition [9]: Active
- IC50 [13]: 1640 nM

SMILES: O=C1/C(=C/c2ccc(O)cc2)Oc2ccccc21
- inhibition at 10 µM [1]: 63.6%

Reference: ChEMBL document CHEMBL4130349, “Discovery and structure-activity relationship studies of 2-benzylidene-2,3-dihydro-1H-inden-1-one and benzofuran-3(2H)-one derivatives as a novel class of potential therapeutics for inflammatory bowel disease” (Eur J Med Chem, 2017)
